Source: PubChem BioAssay AID226 (DTP/NCI, 2004)
“And” between values parts separate entries of the source, which are not always exact repeats. Equal entries are not always repeated. Inconclusive results and toxic doses are left out.

System: B6C3F1 mice, intracerebral ependymoblastoma, median survival T/C
Assay: NCI In Vivo Anticancer Drug Screen. Data for tumor model Ependymoblastoma (intracerebral) in B6C3F1 mice
Settings: endpoint: median survival time, higher = longer survival
Method: The antitumor activity of compounds was measured in mice bearing transplantable tumors. Survival or tumor size were measured and the results are expressed as the measurement made in the treated group (T) divided by the measurement made in the vehicle treated control group (C). The tumor model used in this assay is Ependymoblastoma (intracerebral) in B6C3F1 mice

[1] = dose: 100.0 mg/kg/injection, schedule: Q01DX005 (ip), vehicle: saline with Tween-80
[2] = dose: 4.0 mg/kg/injection, schedule: Q01DX005 (ip), vehicle: saline with Tween-80
[3] = dose: 8.0 mg/kg/injection, schedule: Q01DX005 (ip), vehicle: saline with Tween-80

COCC(O)Cn1ccnc1[N+](=O)[O-] (stereo unspecified)
T/C (dose: 32.0 mg/kg/injection, schedule: Q01DX005 (ip), vehicle: Klucel (hydroxypropylcellulose) (HPC)): 97 % of control
T/C (dose: 64.0 mg/kg/injection, schedule: Q01DX005 (ip), vehicle: Klucel (hydroxypropylcellulose) (HPC)): 96 % of control
T/C [1]: 97 % of control and 111 % of control
T/C (dose: 100.0 mg/kg/injection, schedule: Q01DX009 (ip), vehicle: saline with Tween-80): 91 % of control and 112 % of control
T/C (dose: 100.0 mg/kg/injection, schedule: Q12HX010 (ip), vehicle: saline with Tween-80): 109 % of control
T/C (dose: 100.0 mg/kg/injection, schedule: Q#A X010 (ip), vehicle: saline with Tween-80): 167 % of control
T/C (dose: 100.0 mg/kg/injection, schedule: Q#ADX018 (ip), vehicle: saline with Tween-80): 86 % of control
T/C (dose: 128.0 mg/kg/injection, schedule: Q01DX005 (ip), vehicle: Klucel (hydroxypropylcellulose) (HPC)): 93 % of control
T/C (dose: 200.0 mg/kg/injection, schedule: Q01DX005 (ip), vehicle: saline with Tween-80): 106 % of control and 88 % of control
T/C (dose: 200.0 mg/kg/injection, schedule: Q01DX009 (ip), vehicle: saline with Tween-80): 94 % of control and 107 % of control
T/C (dose: 200.0 mg/kg/injection, schedule: Q12HX010 (ip), vehicle: saline with Tween-80): 118 % of control
T/C (dose: 200.0 mg/kg/injection, schedule: Q#A X010 (ip), vehicle: saline with Tween-80): 172 % of control
T/C (dose: 200.0 mg/kg/injection, schedule: Q#ADX018 (ip), vehicle: saline with Tween-80): 94 % of control
T/C (dose: 256.0 mg/kg/injection, schedule: Q01DX005 (ip), vehicle: Klucel (hydroxypropylcellulose) (HPC)): 92 % of control
T/C (dose: 400.0 mg/kg/injection, schedule: Q01DX005 (ip), vehicle: saline with Tween-80): 92 % of control and 105 % of control
T/C (dose: 400.0 mg/kg/injection, schedule: Q01DX009 (ip), vehicle: saline with Tween-80): 96 % of control and 98 % of control
T/C (dose: 400.0 mg/kg/injection, schedule: Q12HX010 (ip), vehicle: saline with Tween-80): 117 % of control
T/C (dose: 400.0 mg/kg/injection, schedule: Q#A X010 (ip), vehicle: saline with Tween-80): 167 % of control
T/C (dose: 400.0 mg/kg/injection, schedule: Q#ADX018 (ip), vehicle: saline with Tween-80): 100 % of control
T/C (dose: 512.0 mg/kg/injection, schedule: Q01DX005 (ip), vehicle: Klucel (hydroxypropylcellulose) (HPC)): 96 % of control
T/C (dose: 800.0 mg/kg/injection, schedule: Q01DX005 (ip), vehicle: saline with Tween-80): 101 % of control
T/C (dose: 800.0 mg/kg/injection, schedule: Q01DX009 (ip), vehicle: saline with Tween-80): 103 % of control and 104 % of control
T/C (dose: 800.0 mg/kg/injection, schedule: Q12HX010 (ip), vehicle: saline with Tween-80): 99 % of control
T/C (dose: 800.0 mg/kg/injection, schedule: Q#A X010 (ip), vehicle: saline with Tween-80): 165 % of control
T/C (dose: 800.0 mg/kg/injection, schedule: Q#ADX018 (ip), vehicle: saline with Tween-80): 94 % of control

CCCN(C)/N=N/c1nc[nH]c1C(N)=O
T/C [2]: 112 % of control
T/C [3]: 124 % of control

CN(CO)c1nc(N(C)CO)nc(N(C)CO)n1
T/C (dose: 0.78 mg/kg/injection, schedule: Q01DX005 (ip), vehicle: saline with Tween-80): 98 % of control
T/C (dose: 1.56 mg/kg/injection, schedule: Q01DX005 (ip), vehicle: saline with Tween-80): 100 % of control and 105 % of control
T/C (dose: 3.12 mg/kg/injection, schedule: Q01DX005 (ip), vehicle: saline with Tween-80): 94 % of control and 105 % of control and 110 % of control
T/C (dose: 3.12 mg/kg/injection, schedule: Q01DX009 (ip), vehicle: Klucel (hydroxypropylcellulose) (HPC)): 95 % of control and 120 % of control
T/C [2]: 98 % of control
T/C (dose: 6.25 mg/kg/injection, schedule: Q01DX009 (ip), vehicle: Klucel (hydroxypropylcellulose) (HPC)): 96 % of control and 108 % of control and 111 % of control
T/C [3]: 89 % of control
T/C (dose: 12.5 mg/kg/injection, schedule: Q01DX009 (ip), vehicle: Klucel (hydroxypropylcellulose) (HPC)): 93 % of control and 111 % of control
T/C (dose: 16.0 mg/kg/injection, schedule: Q01DX005 (ip), vehicle: saline with Tween-80): 97 % of control
T/C (dose: 25.0 mg/kg/injection, schedule: Q01DX009 (ip), vehicle: Klucel (hydroxypropylcellulose) (HPC)): 104 % of control and 114 % of control and 124 % of control
T/C (dose: 32.0 mg/kg/injection, schedule: Q01DX005 (ip), vehicle: saline with Tween-80): 94 % of control
T/C (dose: 50.0 mg/kg/injection, schedule: Q01DX009 (ip), vehicle: Klucel (hydroxypropylcellulose) (HPC)): 120 % of control
T/C (dose: 64.0 mg/kg/injection, schedule: Q01DX005 (ip), vehicle: saline with Tween-80): 95 % of control
T/C [1]: 119 % of control
